In patent publication US20210238173A1, “MITOGEN-ACTIVATED PROTEIN KINASE KINASE 7 INHIBITORS” (Yeda Research and Development Co. Ltd., priority 2018, published 2021):

Tests used:
pERK in HEK293 cells = experiment: pERK response in HEK293 cells; format: cell-based; conditions: at 10 μM
Method: To rapidly assess the cellular activity (EC50) with full dose response curves of the MKK7 covalent inhibitors, according to some embodiments of the present invention, an in-cell western assay was adapted to a 384 well plate format over traditional western blot, and monitored phospho-JNK (pJNK) levels in response to osmotic shock. We first characterized the dynamics of pJNK in response to sorbitol. Sufficient dynamic range for pJNK is achieved at 20 minutes in HEK293 cells and at 40 minutes in 3T3 and Beas2B cells. The compound's activity was assessed by pre-treating cells with either compound or DMSO for 2 hours, followed by Sorbitol stimulation. The response of pJNK, and its substrates, pc-Jun and pATF2, was measured, as well as pP38, which is a substrate of MKK4 but not MKK7, and pERK in HEK293 cells, and the results are presented in Table 5 below.
With similar values for pcJun (2.26 μM and 1.67 μM, respectively) and pATF2 (2.79 μM 5.19 μM, respectively).

ABL1 = ABL1 (Homo sapiens, UniProt P00519); experiment: Kinome selectivity screen ABL1; format: biochemical; conditions: 1 μM compound
Method: (§1) Kinome Selectivity Screen:
(§2) Kinase selectivity was assessed using the Life Technologies SelectScreen Kinase Profiling Service in a custom panel of 76 kinases selected to provide broad representative coverage of all kinase families. Kinase activity assays employed either the Z′-LYTE or Adapta assay technologies with ATP concentrations at or near the KM, ATP for each kinase and a test compound concentration of 1 μM.

AKT1 (PKB alpha) = AKT1 (PKB alpha) (Homo sapiens, UniProt P31749); experiment: Kinome selectivity screen AKT1; format: biochemical; conditions: 1 μM compound
Method: as §1, §2

CDK1/cyclin B = CDK1/cyclin B (Homo sapiens, UniProt P06493); experiment: Kinome selectivity screen CDK1/cyclin B; format: biochemical; conditions: 1 μM compound
Method: as §1, §2

CDK9/cyclin T1 = CDK9/cyclin T1 (Homo sapiens, UniProt P50750); experiment: Kinome selectivity screen CDK9/cyclin T1; format: biochemical; conditions: 1 μM compound
CDK9/cyclin T1, sequence (P50750 whole entry): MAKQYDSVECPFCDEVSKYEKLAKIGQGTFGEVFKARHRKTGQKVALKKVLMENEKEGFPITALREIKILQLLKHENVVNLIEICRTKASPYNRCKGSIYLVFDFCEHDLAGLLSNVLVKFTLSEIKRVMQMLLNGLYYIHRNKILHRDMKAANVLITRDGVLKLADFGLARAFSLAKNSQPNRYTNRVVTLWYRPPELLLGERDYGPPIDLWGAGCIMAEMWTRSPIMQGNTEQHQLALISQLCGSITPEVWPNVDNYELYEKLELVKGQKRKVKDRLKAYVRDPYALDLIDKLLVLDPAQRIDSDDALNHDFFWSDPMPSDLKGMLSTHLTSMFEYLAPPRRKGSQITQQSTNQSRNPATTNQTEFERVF
CDK9/cyclin T1, sequence (O60563 whole entry partner): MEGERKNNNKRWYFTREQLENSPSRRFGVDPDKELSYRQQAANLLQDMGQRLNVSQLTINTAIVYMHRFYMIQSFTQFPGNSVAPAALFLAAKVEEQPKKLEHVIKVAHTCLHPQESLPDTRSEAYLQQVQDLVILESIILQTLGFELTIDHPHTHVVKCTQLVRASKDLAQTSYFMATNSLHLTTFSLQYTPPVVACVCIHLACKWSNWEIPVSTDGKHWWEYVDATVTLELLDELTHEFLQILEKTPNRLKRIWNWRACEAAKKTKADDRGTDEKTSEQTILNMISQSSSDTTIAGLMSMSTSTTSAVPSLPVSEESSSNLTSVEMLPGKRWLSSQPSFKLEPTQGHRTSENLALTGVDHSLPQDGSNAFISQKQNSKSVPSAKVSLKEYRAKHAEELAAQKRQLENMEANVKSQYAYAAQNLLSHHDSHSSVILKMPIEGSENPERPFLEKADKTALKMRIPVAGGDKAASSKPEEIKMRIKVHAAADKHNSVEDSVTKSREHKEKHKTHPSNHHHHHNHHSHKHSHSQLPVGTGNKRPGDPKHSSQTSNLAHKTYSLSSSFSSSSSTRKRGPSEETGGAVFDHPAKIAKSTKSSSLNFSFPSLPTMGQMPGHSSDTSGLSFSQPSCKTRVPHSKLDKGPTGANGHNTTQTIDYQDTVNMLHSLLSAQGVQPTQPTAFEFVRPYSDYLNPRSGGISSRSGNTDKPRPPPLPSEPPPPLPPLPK
Method: as §1, §2

CSNK2A1 (CK2 alpha 1) = CSNK2A1 (CK2 alpha 1) (Homo sapiens, UniProt P68400); experiment: Kinome selectivity screen CSNK2A1; format: biochemical; conditions: 1 μM compound
Method: as §1, §2

DCAMKL2 (DCK2) = DCAMKL2 (DCK2) (Homo sapiens, UniProt Q8N568); experiment: Kinome selectivity screen DCAMKL2; format: biochemical; conditions: 1 μM compound
Method: as §1, §2

EGFR (ErbB1) = EGFR (ErbB1) (Homo sapiens, UniProt P00533); experiment: Kinome selectivity screen EGFR; format: biochemical; conditions: 1 μM compound
Method: as §1, §2

EPHB1 = EPHB1 (Homo sapiens, UniProt P54762); experiment: Kinome selectivity screen EPHB1; format: biochemical; conditions: 1 μM compound
Method: as §1, §2

FLT4 (VEGFR3) = FLT4 (VEGFR3) (Homo sapiens, UniProt P35916); experiment: Kinome selectivity screen FLT4; format: biochemical; conditions: 1 μM compound
Method: as §1, §2

FRAP1 (mTOR) = FRAP1 (mTOR) (Homo sapiens, UniProt P42345); experiment: Kinome selectivity screen FRAP1; format: biochemical; conditions: 1 μM compound
Method: as §1, §2

GRK4 = GRK4 (Homo sapiens, UniProt P32298); experiment: Kinome selectivity screen GRK4; format: biochemical; conditions: 1 μM compound
GRK4, sequence (P32298 whole entry): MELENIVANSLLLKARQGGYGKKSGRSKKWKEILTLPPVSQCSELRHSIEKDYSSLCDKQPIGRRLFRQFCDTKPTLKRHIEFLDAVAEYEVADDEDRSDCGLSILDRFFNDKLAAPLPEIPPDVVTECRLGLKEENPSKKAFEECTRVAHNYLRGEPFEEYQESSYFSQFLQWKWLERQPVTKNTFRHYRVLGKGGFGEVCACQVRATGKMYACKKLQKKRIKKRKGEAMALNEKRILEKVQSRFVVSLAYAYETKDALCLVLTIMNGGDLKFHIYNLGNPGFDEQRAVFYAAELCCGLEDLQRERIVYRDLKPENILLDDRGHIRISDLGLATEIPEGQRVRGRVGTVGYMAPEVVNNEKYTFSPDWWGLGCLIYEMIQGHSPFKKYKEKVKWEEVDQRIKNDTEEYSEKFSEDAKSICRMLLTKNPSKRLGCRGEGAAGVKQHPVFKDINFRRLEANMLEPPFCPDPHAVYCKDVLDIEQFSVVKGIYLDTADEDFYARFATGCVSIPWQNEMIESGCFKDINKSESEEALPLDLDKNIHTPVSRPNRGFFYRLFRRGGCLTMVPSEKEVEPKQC
Method: as §1, §2

GSK3B (GSK3 beta) = GSK3B (GSK3 beta) (Homo sapiens, UniProt P49841); experiment: Kinome selectivity screen GSK3B; format: biochemical; conditions: 1 μM compound
Method: as §1, §2

JAK3 = JAK3 (Homo sapiens, UniProt P52333); experiment: Kinome selectivity screen JAK3; format: biochemical; conditions: 1 μM compound
Method: as §1, §2

MAP2K4 (MEK4) = MAP2K4 (MEK4) (Homo sapiens, UniProt P45985); experiment: Kinome selectivity screen MAP2K4; format: biochemical; conditions: 1 μM compound
Method: as §1, §2

MAP3K8 (COT) = MAP3K8 (COT) (Homo sapiens, UniProt P41279); experiment: Kinome selectivity screen MAP3K8; format: biochemical; conditions: 1 μM compound
Method: as §1, §2

MAP4K5 (KHS1) = MAP4K5 (KHS1) (Homo sapiens, UniProt Q9Y4K4); experiment: Kinome selectivity screen MAP4K5; format: biochemical; conditions: 1 μM compound
Method: as §1, §2

MAPK1 (ERK2) = MAPK1 (ERK2) (Homo sapiens, UniProt P28482); experiment: Kinome selectivity screen MAPK1; format: biochemical; conditions: 1 μM compound
MAPK1 (ERK2), sequence (P28482 whole entry): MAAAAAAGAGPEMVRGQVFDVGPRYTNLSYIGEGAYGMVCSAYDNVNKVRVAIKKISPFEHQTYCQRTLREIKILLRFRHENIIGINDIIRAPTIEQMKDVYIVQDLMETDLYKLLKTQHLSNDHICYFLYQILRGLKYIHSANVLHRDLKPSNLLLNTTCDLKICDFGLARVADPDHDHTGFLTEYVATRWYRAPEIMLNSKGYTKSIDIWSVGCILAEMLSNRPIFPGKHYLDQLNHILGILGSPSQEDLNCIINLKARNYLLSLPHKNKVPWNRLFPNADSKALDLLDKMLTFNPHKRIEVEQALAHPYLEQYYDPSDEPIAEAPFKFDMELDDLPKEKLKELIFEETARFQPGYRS
Method: as §1, §2

MARK1 (MARK) = MARK1 (MARK) (Homo sapiens, UniProt Q9P0L2); experiment: Kinome selectivity screen MARK1; format: biochemical; conditions: 1 μM compound
Method: as §1, §2

NEK1 = NEK1 (Homo sapiens, UniProt Q96PY6); experiment: Kinome selectivity screen NEK1; format: biochemical; conditions: 1 μM compound
Method: as §1, §2

NEK7 = NEK7 (Homo sapiens, UniProt Q8TDX7); experiment: Kinome selectivity screen NEK7; format: biochemical; conditions: 1 μM compound
Method: as §1, §2

PDGFRB (PDGFR beta) = PDGFRB (PDGFR beta) (Homo sapiens, UniProt P09619); experiment: Kinome selectivity screen PDGFRB; format: biochemical; conditions: 1 μM compound
Method: as §1, §2

PHKG2 = PHKG2 (Homo sapiens, UniProt P15735); experiment: Kinome selectivity screen PHKG2; format: biochemical; conditions: 1 μM compound
PHKG2, sequence (P15735 whole entry): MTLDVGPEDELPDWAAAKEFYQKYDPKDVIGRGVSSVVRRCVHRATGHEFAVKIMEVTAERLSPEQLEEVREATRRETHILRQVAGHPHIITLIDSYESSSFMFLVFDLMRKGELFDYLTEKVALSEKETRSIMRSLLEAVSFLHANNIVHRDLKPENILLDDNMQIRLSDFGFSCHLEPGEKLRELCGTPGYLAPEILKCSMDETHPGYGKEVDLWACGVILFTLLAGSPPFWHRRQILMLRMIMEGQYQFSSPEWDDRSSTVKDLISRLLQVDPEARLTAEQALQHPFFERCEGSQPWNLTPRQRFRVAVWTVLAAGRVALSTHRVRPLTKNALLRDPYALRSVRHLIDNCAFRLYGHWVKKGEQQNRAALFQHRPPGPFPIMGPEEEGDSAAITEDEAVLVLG
Method: as §1, §2

PIM1 = PIM1 (Homo sapiens, UniProt P11309); experiment: Kinome selectivity screen PIM1; format: biochemical; conditions: 1 μM compound
Method: as §1, §2

PRKACA (PKA) = PRKACA (PKA) (Homo sapiens, UniProt P17612); experiment: Kinome selectivity screen PRKACA; format: biochemical; conditions: 1 μM compound
Method: as §1, §2

PRKCB1 (PKC beta I) = PRKCB1 (PKC beta I) (Homo sapiens, UniProt P05771); experiment: Kinome selectivity screen PRKCB1; format: biochemical; conditions: 1 μM compound
PRKCB1 (PKC beta I), sequence (P05771 whole entry): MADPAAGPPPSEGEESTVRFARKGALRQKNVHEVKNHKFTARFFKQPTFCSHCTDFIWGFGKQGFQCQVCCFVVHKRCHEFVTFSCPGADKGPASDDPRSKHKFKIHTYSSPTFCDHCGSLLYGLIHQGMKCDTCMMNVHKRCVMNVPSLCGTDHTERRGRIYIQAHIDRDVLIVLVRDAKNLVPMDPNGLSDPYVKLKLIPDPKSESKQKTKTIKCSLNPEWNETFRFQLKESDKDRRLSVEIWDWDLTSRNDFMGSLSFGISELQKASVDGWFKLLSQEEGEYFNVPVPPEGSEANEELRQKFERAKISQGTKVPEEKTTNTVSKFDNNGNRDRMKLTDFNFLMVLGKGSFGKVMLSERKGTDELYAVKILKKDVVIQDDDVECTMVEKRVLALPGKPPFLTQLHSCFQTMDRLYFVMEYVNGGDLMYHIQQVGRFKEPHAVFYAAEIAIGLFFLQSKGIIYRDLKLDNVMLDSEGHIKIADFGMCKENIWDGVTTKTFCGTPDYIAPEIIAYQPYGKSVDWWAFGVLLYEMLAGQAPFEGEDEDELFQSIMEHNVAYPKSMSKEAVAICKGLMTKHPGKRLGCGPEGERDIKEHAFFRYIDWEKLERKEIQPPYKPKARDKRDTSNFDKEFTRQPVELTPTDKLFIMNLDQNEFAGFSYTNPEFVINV
Method: as §1, §2

PRKCD (PKC delta) = PRKCD (PKC delta) (Homo sapiens, UniProt Q05655); experiment: Kinome selectivity screen PRKCD; format: biochemical; conditions: 1 μM compound
PRKCD (PKC delta), sequence (Q05655 whole entry): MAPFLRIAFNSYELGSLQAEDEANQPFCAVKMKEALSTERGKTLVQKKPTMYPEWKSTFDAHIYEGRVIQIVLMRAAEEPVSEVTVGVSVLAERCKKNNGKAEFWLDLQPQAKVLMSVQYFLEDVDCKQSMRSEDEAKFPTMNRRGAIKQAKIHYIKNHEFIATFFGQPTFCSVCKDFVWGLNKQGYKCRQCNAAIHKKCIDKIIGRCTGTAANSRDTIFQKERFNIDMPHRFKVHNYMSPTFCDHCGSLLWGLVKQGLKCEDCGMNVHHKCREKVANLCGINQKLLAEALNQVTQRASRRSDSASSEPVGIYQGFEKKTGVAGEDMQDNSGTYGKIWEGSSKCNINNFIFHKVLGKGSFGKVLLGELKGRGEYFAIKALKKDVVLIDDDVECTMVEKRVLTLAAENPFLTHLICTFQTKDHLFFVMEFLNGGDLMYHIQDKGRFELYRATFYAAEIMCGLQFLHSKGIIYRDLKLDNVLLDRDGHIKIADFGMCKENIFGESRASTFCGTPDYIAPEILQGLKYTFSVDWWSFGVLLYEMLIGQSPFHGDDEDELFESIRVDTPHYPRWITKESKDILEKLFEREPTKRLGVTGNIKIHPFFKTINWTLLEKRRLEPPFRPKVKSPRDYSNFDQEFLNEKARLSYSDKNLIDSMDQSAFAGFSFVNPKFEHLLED
Method: as §1, §2

PRKCE (PKC epsilon) = PRKCE (PKC epsilon) (Homo sapiens, UniProt Q02156); experiment: Kinome selectivity screen PRKCE; format: biochemical; conditions: 1 μM compound
Method: as §1, §2

RET = RET (Homo sapiens, UniProt P07949); experiment: Kinome selectivity screen RET; format: biochemical; conditions: 1 μM compound
RET, sequence (P07949 29-1114): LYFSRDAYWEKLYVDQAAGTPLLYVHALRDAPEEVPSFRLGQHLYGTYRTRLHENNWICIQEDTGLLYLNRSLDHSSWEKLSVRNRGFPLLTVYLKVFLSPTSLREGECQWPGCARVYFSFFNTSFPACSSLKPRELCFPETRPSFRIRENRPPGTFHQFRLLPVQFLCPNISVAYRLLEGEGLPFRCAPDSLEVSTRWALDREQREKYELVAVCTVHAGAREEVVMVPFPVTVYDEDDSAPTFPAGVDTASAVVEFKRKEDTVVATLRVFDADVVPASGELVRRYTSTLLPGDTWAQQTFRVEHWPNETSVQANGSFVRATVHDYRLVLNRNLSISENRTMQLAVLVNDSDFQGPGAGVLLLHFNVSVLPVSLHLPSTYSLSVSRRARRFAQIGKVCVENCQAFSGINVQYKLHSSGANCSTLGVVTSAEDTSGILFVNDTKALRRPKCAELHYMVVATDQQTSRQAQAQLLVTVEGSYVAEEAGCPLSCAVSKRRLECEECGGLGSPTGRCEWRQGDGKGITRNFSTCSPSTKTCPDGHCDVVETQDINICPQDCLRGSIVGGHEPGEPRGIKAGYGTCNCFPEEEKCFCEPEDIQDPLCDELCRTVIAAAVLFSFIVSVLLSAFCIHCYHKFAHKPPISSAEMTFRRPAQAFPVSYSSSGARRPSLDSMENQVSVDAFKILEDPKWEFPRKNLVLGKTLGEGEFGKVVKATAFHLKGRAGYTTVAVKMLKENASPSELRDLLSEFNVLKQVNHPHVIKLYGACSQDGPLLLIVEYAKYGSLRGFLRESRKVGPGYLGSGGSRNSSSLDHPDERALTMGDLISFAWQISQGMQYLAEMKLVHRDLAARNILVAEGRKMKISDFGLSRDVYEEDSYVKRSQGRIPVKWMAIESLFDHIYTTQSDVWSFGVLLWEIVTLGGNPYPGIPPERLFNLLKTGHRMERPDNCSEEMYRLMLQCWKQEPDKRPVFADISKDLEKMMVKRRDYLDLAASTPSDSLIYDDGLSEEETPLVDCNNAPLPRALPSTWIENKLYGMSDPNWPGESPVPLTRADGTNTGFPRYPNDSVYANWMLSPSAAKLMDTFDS
Method: as §1, §2

RPS6KB1 (p70S6K) = RPS6KB1 (p70S6K) (Homo sapiens, UniProt P23443); experiment: Kinome selectivity screen RPS6KB1; format: biochemical; conditions: 1 μM compound
Method: as §1, §2

SRC = SRC (Homo sapiens, UniProt P12931); experiment: Kinome selectivity screen SRC; format: biochemical; conditions: 1 μM compound
Method: as §1, §2

SYK = SYK (Homo sapiens, UniProt P43405); experiment: Kinome selectivity screen SYK; format: biochemical; conditions: 1 μM compound
Method: as §1, §2

SMILES | inhibition at 1 µM (ABL1) | inhibition at 1 µM (AKT1 (PKB alpha)) | inhibition at 1 µM (CDK1/cyclin B) | inhibition at 1 µM (CDK9/cyclin T1) | inhibition at 1 µM (CSNK2A1 (CK2 alpha 1)) | inhibition at 1 µM (DCAMKL2 (DCK2)) | inhibition at 1 µM (EGFR (ErbB1)) | inhibition at 1 µM (EPHB1) | inhibition at 1 µM (FLT4 (VEGFR3)) | inhibition at 1 µM (FRAP1 (mTOR)) | inhibition at 1 µM (GRK4) | inhibition at 1 µM (GSK3B (GSK3 beta)) | inhibition at 1 µM (JAK3) | inhibition at 1 µM (MAP2K4 (MEK4)) | inhibition at 1 µM (MAP3K8 (COT)) | inhibition at 1 µM (MAP4K5 (KHS1)) | inhibition at 1 µM (MAPK1 (ERK2)) | inhibition at 1 µM (MARK1 (MARK)) | inhibition at 1 µM (NEK1) | inhibition at 1 µM (NEK7) | further results
C=CC(=O)Nc1cccc(-c2n[nH]c3ccccc23)c1 [GO32] | 2% | -5% | 19% | 3% | 0% | -2% | -6% | -4% | -2% | -2% | -5% | -10% | 89% | 79% | -7% | 22% | -3% | 14% | 5% | 8% | decrease in pERK (pERK in HEK293 cells): about 25%; inhibition at 1 µM (PDGFRB (PDGFR beta)): -3%; inhibition at 1 µM (PHKG2): 1%; inhibition at 1 µM (PIM1): 1%; inhibition at 1 µM (PRKACA (PKA)): -8%; inhibition at 1 µM (PRKCB1 (PKC beta I)): 1%; inhibition at 1 µM (PRKCD (PKC delta)): 9%; inhibition at 1 µM (PRKCE (PKC epsilon)): 20%; inhibition at 1 µM (RET): 6%; inhibition at 1 µM (RPS6KB1 (p70S6K)): 5%; inhibition at 1 µM (SRC): 10%; inhibition at 1 µM (SYK): 19%
C=CC(=O)Nc1cccc(-c2n[nH]c3cc(C)ccc23)c1 [GO80] | 1% | -4% | 22% | 5% | -2% | -1% | -4% | -2% | 0% | -2% | -3% | -8% | 64% | 81% | -12% | -11% | 3% | 4% | 2% | 7% | effect on pERK levels (pERK in HEK293 cells): did not affect; inhibition at 1 µM (PDGFRB (PDGFR beta)): -13%; inhibition at 1 µM (PHKG2): 7%; inhibition at 1 µM (PIM1): 5%; inhibition at 1 µM (PRKACA (PKA)): -10%; inhibition at 1 µM (PRKCB1 (PKC beta I)): 5%; inhibition at 1 µM (PRKCD (PKC delta)): 7%; inhibition at 1 µM (PRKCE (PKC epsilon)): 21%; inhibition at 1 µM (RET): 5%; inhibition at 1 µM (RPS6KB1 (p70S6K)): 0%; inhibition at 1 µM (SRC): -4%; inhibition at 1 µM (SYK): 17%
